In patent US11473153B2, “Device and methods of using device for separation of bacteria from complex samples” (priority 2014, dated 2022):
Read-outs that look alike come from different tables or passages of the source.

How the values were obtained:
[1] = system: bacteria; details: cited from earlier work
[2] = system: unspecific bacteria grown from dirt
[3] = system: E. coli O157H7; details: Eth20%/GroundMeat + O157H7/Media, 30 min, 1.5 ml device
[4] = system: S. typhimurium; details: Eth20%/Media + Salmonella/Media, 1.5 ml device
[5] = system: S. typhimurium; experiment: Microliter-scale sample chamber device, separation run (FIG. 12); assay type: cell-based; details: 30 minutes
Procedure: Experimental and control separation runs were performed in the device and results recorded as disclosed below. FIG. 12 depicts an experimental run on the device in which 2 mM of alpha-methylaspartate (chemo-attractant) was diluted in chemotaxis buffer was introduced in the extraction chamber. […] Deionized water was introduced in the repellent chamber. After 30 minutes, the contents of each chamber was recovered and the amount of bacteria in each chamber counted.

[6] = system: S. typhimurium; experiment: Four-channel membrane microfluidic chip, separation by chemoattractant (FIG. 9B); assay type: cell-based
From the text: FIG. 9A depicts a diagram of a microfluidic chip with four channels that overlap in the vertical direction, with each channel being separated by a semipermeable membrane. Each channel has an inlet/outlet on either end of the chip, each channel can be filled using regular pipettes. The four channels overlap in the vertical direction to maximize contact are amongst channels and optimizes the time required for the chemical gradients to form. The membranes between the channels prevent fluid flow while allowing the chemical gradients to form and bacteria to migrate between the channels. […] The contents of each channel was extracted after approximately 30 minutes and the bacterial density measured using a cell counter (left hand bar in each column). […] Control experiments were also performed to evaluate random dispersion of bacteria to channels 1 and 3 filled with buffer; very few of the bacteria moved away from channel 2 without the present of the chemoattractant (middle bars in each column).

OC[C@H]1O[C@H](O[C@H]2[C@H](O)[C@@H](O)C(O)O[C@@H]2CO)[C@H](O)[C@@H](O)[C@@H]1O (mixture of isomers) [Maltose]
Chemoattractant (bacteria for which the substance is one) [1]: E. coli | Chemorepellent (bacteria for which the substance is one) [1]: (no effect on S. typhimurium)

CC(=O)O [Acetate]
Chemoattractant (bacteria for which the substance is one) [1]: C. vinosum | Chemorepellent (bacteria for which the substance is one) [1]: E. coli, S. typhimurium

O=C(O)c1ccccc1 [Benzoate]
Chemoattractant (bacteria for which the substance is one) [1]: P. putida | Chemorepellent (bacteria for which the substance is one) [1]: E. coli, S. typhimurium

O=C(O)CC(O)(CC(=O)O)C(=O)O [Citrate]
Chemoattractant (bacteria for which the substance is one) [1]: S. typhimurium | Chemorepellent (bacteria for which the substance is one) [1]: (no effect on E. coli)

[Co+2] [Co^2+]
Chemoattractant (bacteria for which the substance is one) [1]: (no effect on S. typhimurium) | Chemorepellent (bacteria for which the substance is one) [1]: E. coli

CCO [Eth20%, Ethanol]
movement of bacteria over time ([2]; 50% ethanol chemorepellent gradient, FIG. 4B/4C): clearly seen moving away from the ethanol | state of bacteria next to the maximum concentration of ethanol ([2]; 50% ethanol chemorepellent in horizontal channel, FIG. 4B): non-motile and putatively dead | E: extraction efficiency ([3]; Meat diluted 1:1): 77.60% | E: extraction efficiency ([3]; Meat diluted 1:2): 109.80% | E: extraction efficiency ([3]; Meat diluted 1:3): 57.00% | E: extraction efficiency ([4]; 25 min): 76.4% + −8% | E: extraction efficiency ([4]; 30 min): 87.9% + −7%

[H+] [H^+]
Chemoattractant (bacteria for which the substance is one) [1]: R. sphaeroids | Chemorepellent (bacteria for which the substance is one) [1]: E. coli, C. vinosum

CC(C)C[C@H](N)C(=O)O [Leucine]
Chemoattractant (bacteria for which the substance is one) [1]: B. subtilis | Chemorepellent (bacteria for which the substance is one) [1]: E. coli, S. typhimurium

[Ni+2] [Ni^2]
Chemoattractant (bacteria for which the substance is one) [1]: (no effect on S. typhimurium) | Chemorepellent (bacteria for which the substance is one) [1]: E. coli

O [OH^−]
Chemoattractant (bacteria for which the substance is one) [1]: R. sphaeroids | Chemorepellent (bacteria for which the substance is one) [1]: E. coli, C. vinosum

Oc1ccccc1 [Phenol]
Chemoattractant (bacteria for which the substance is one) [1]: E. coli | Chemorepellent (bacteria for which the substance is one) [1]: S. typhimurium

N[C@@H](Cc1c[nH]c2ccccc12)C(=O)O [Tryptophan]
Chemoattractant (bacteria for which the substance is one) [1]: B. subtilis, C. vinosum | Chemorepellent (bacteria for which the substance is one) [1]: E. coli, S. typhimurium

CC(C)[C@H](N)C(=O)O [Valine]
Chemoattractant (bacteria for which the substance is one) [1]: B. subtilis | Chemorepellent (bacteria for which the substance is one) [1]: E. coli, S. typhimurium

CC(N)(CC(=O)O)C(=O)O (stereo not drawn) [α-methyl aspartate]
concentration of bacteria in the extraction chamber normalized to the initial concentration ([5]; 2 mM in chemotaxis buffer in extraction chamber, sample chamber about 110 μL): about 2 times higher than the initial concentration | bacteria in the repellent chamber ([5]; 2 mM in extraction chamber, deionized water in repellent chamber): no bacteria were found | bacterial density per channel (cell counter) ([6]; 2 mM in channel 1, S. typhimurium in channel 2, buffer in channel 3, approximately 30 minutes): most bacteria crossed over to the channel containing maximal concentration of chemoattractant | bacterial density per channel, gravity control ([6]; buffer and chemoattractant introduced through the opposite channels): the results were the same
